Test systems include M19-MEL; SF-295; K562; NCI-H226; UACC-257; HL-60; HCT-116; UACC-62; OVCAR-3; CCRF-CEM; SF-539; Malme-3M; SF-268; NCI-H460; SK-MEL-2; ACHN.
Assay in all cases: NCI-60 cell line screen, 48 h

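96-well plates; 48 h exposure; 5 concentrations. Endpoints by linear interpolation between flanking doses. Not reached: highest tested concentration assigned. GI50 marks 50% less growth.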 The source made the active and inactive calls. Cut-off read from the data, not from the text of the source: active = GI50 up to about 1.1 µM and inactive = higher.

Take `COc1ccc(S(=O)(=O)c2ccccc2[N+](=O)[O-])cc1`: the GI50 is 77.8 µM (inactive) in the test with M19-MEL; 62.8 µM (inactive) in the test on SF-295; > 100 µM (inactive) in the test on K562; > 100 µM (inactive) with NCI-H226; 71.8 µM (inactive) in the test with UACC-257; 55.6 µM (inactive) in the test on HL-60. The GI50 was > 100 µM (inactive) with HCT-116; > 100 µM (inactive) in the test with UACC-62; 98.6 µM (inactive) in the test with OVCAR-3; > 100 µM (inactive) in the test on CCRF-CEM; > 100 µM (inactive) in the test on SF-539; 81.1 µM (inactive) with Malme-3M. Moreover, the GI50 in the test on SF-268, in the test with NCI-H460 and in the test on SK-MEL-2 was > 100 µM (inactive) in each case.

`CCOC(=O)/C(C#N)=C(N)/C(=N\Nc1cccc(C(F)(F)F)c1)C(=O)OCC`: the GI50 is > 100 µM (inactive) in the test with M19-MEL; > 100 µM (inactive) in the test on SF-295; > 100 µM (inactive) in the test with ACHN; > 100 µM (inactive) in the test with NCI-H226; > 100 µM (inactive) in the test on UACC-257; 75.9 µM (inactive) in the test on HL-60. Further, the GI50 with HCT-116, with UACC-62, in the test on OVCAR-3, in the test with CCRF-CEM, with SF-539 and in the test with Malme-3M was > 100 µM (inactive) each time. The GI50 in the test with SF-268 and in the test with SK-MEL-2 was > 100 µM (inactive) throughout.

`CC1(C)OC(C(N)=O)=C(C(N)=O)O1`: the GI50 in the test with M19-MEL, in the test on SF-295, in the test with K562, in the test on ACHN, in the test on NCI-H226 and in the test on UACC-257 was > 100 µM (inactive) each time. Besides, the GI50 in the test with HL-60, with HCT-116, with UACC-62, in the test with OVCAR-3, in the test with CCRF-CEM and with SF-539 was > 100 µM (inactive) each time. The GI50 with Malme-3M, in the test with SF-268, with NCI-H460 and with SK-MEL-2 was > 100 µM (inactive) in each case.

As for `CN(C)CCNc1c([N+](=O)[O-])cc2c3c(cccc13)C(=O)N(CCN(C)C)C2=O`, the GI50 in the test with M19-MEL is 1.6 µM (inactive); in the test on SF-295, 1.24 µM (inactive); in the test on K562, 0.556 µM (active); with NCI-H226, > 100 µM (inactive); with UACC-257, 2.08 µM (inactive); in the test on HL-60, 1.68 µM (inactive). For the same compound, the GI50 was 0.552 µM (active) in the test on HCT-116; 1.75 µM (inactive) in the test on UACC-62; 1.79 µM (inactive) in the test on OVCAR-3; 0.893 µM (active) with CCRF-CEM; 2.16 µM (inactive) in the test with SF-539; 0.635 µM (active) with Malme-3M. Moreover, the GI50 in the test with SF-268 was 2.2 µM (inactive); with NCI-H460, 0.653 µM (active); in the test on SK-MEL-2, 1.77 µM (inactive).

`O=P(c1ccccc1)(c1ccccc1)C1CC=C(c2ccccc2)C2(CCCC2)C1` (stereo not drawn): the GI50 in the test with M19-MEL is 43.7 µM (inactive); with SF-295, 72.3 µM (inactive); in the test with K562 it was 31.4 µM (inactive); with NCI-H226 it was 44.9 µM (inactive); in the test on UACC-257, 43.7 µM (inactive); in the test on HL-60, 21.6 µM (inactive). Further, the GI50 in the test with HCT-116 is 45 µM (inactive); in the test with UACC-62, 37.6 µM (inactive); with OVCAR-3 it was 49.1 µM (inactive); in the test with CCRF-CEM, 33.1 µM (inactive); with SF-539 it was > 100 µM (inactive); with Malme-3M, 34.8 µM (inactive). Moreover, the GI50 is 90.4 µM (inactive) in the test with SF-268, 59.2 µM (inactive) in the test on NCI-H460 and 46.7 µM (inactive) with SK-MEL-2.

As to `Cc1ccc(/C=C/C(=O)c2ccc([N+](=O)[O-])cc2)cc1`, the GI50 with M19-MEL, in the test on SF-295, with K562, in the test with ACHN, in the test on NCI-H226 and with UACC-257 was > 100 µM (inactive) in each case. Moreover, the GI50 was 90.6 µM (inactive) with HL-60; > 100 µM (inactive) in the test on HCT-116; > 100 µM (inactive) with UACC-62; > 100 µM (inactive) in the test with OVCAR-3; > 100 µM (inactive) with CCRF-CEM; > 100 µM (inactive) in the test on SF-539. For the same compound, the GI50 with Malme-3M, in the test with SF-268, in the test on NCI-H460 and in the test with SK-MEL-2 was > 100 µM (inactive) throughout.

Consider `CCOC(=O)C1S/C(=N\c2ccc(C)c(C)c2)N=C1C` (stereo not drawn), for which the GI50 with M19-MEL is > 100 µM (inactive); in the test on SF-295 it was > 100 µM (inactive); in the test on K562 it was 59.3 µM (inactive); with ACHN it was > 100 µM (inactive); in the test on NCI-H226, > 100 µM (inactive); with UACC-257, > 100 µM (inactive). For the same compound, the GI50 in the test on HL-60 was 61 µM (inactive); in the test on UACC-62 it was > 100 µM (inactive); in the test with OVCAR-3, > 100 µM (inactive); in the test on CCRF-CEM, > 100 µM (inactive); with SF-539, > 100 µM (inactive); with Malme-3M it was > 100 µM (inactive). The GI50 with SF-268, with NCI-H460 and in the test on SK-MEL-2 was > 100 µM (inactive) in each case.

`COC(=O)C1=C(C(=O)OC)SC(=C(/N=N/c2ccccc2)c2ccccc2)S1`: the GI50 was > 100 µM (inactive) with M19-MEL; > 100 µM (inactive) with SF-295; > 100 µM (inactive) in the test with K562; 80.9 µM (inactive) in the test with ACHN; > 100 µM (inactive) in the test with NCI-H226; > 100 µM (inactive) in the test on UACC-257. The GI50 in the test with HL-60 is > 100 µM (inactive); in the test on HCT-116, > 100 µM (inactive); in the test on UACC-62, > 100 µM (inactive); with OVCAR-3, 61.2 µM (inactive); with CCRF-CEM, > 100 µM (inactive); in the test with SF-539, > 100 µM (inactive). Further, the GI50 in the test on Malme-3M, with SF-268, with NCI-H460 and with SK-MEL-2 was > 100 µM (inactive) throughout.

On to `Cc1nc(-n2nc(-c3ccccc3)cc2-c2ccccc2)sc1C(=O)/C=C/c1ccc(Cl)c(Cl)c1`, for which the GI50 in the test with M19-MEL was 51.6 µM (inactive); with SF-295 it was 16.7 µM (inactive); with K562, 15.8 µM (inactive); in the test with ACHN, 23.7 µM (inactive); in the test with NCI-H226, 15.3 µM (inactive); with UACC-257 it was 25.8 µM (inactive). For the same compound, the GI50 in the test on HL-60 is 14 µM (inactive); in the test with HCT-116, 26.7 µM (inactive); with UACC-62, 4.89 µM (inactive); in the test on OVCAR-3, 15.9 µM (inactive); in the test on CCRF-CEM it was 16.9 µM (inactive); with SF-539 it was 18.3 µM (inactive). Besides, the GI50 was 32.4 µM (inactive) in the test with Malme-3M, 33.1 µM (inactive) with SF-268, > 100 µM (inactive) in the test on NCI-H460 and 41.7 µM (inactive) in the test on SK-MEL-2.

The values are drawn from ChEMBL document CHEMBL1201862, “PubChem BioAssay data set” (2004).
